SMILES | logP
Oc1c(F)cccc1F | 1.96
COC(=O)c1ccc([N+](=O)[O-])cc1 | 1.89
CCOc1cccc(OC(C)=O)c1 | 2.08
O=C(O)c1c(Cl)cccc1[N+](=O)[O-] | 1.56
Cc1cccc(Cl)c1C(=O)O | 2.31
CSc1ccccc1C(N)=O | 0.71
O=C(O)c1c(F)cccc1F | 1.59
COC(=O)c1cccc([N+](=O)[O-])c1 | 1.89
NC(=O)c1ccccc1[N+](=O)[O-] | -0.12
Cc1nc(N)sc1C(=O)CCN(C)C | 1.47
COC(=O)c1c(F)cccc1F | 1.96
COC(=O)c1cccc(Cl)c1 | 2.85
COC(=O)c1c(Cl)cccc1Cl | 2.79
COC(=O)c1c(C)cccc1C | 2.55
COC(=O)c1c(F)cccc1Cl | 2.42
COC(=O)c1ccccc1OC | 2.04
COC(=O)c1cccc(C)c1 | 2.77

SMILES | logP
COc1cccc(OC(C)=O)c1 | 1.61
COC(=O)c1c(Cl)cccc1[N+](=O)[O-] | 2.21
COC(=O)c1ccccc1I | 2.74
CC(=O)Oc1c(Cl)cccc1Cl | 2.94
CCc1cccc(CC)c1O | 3.03
Cc1cccc(Cl)c1O | 2.8
COC(=O)c1ccc(C)cc1 | 2.7
COC(=O)c1ccc(F)cc1 | 2.28
COC(=O)c1ccccc1F | 1.82
CCc1cccc(CC)c1OC(C)=O | 3.4
CC(=O)Oc1c(C)cccc1C | 2.32
CCc1cccc(OC(C)=O)c1 | 2.45
COC(=O)c1ccc(Br)cc1 | 2.95
Oc1c(Br)cccc1Br | 3.36
N#Cc1ccccc1C(N)=O | 0
Cc1cccc(C)c1C(=O)O | 2.21
COC(=O)c1ccccc1[N+](=O)[O-] | 1.66
